Measurements from paper PMC12483202, “Pharmacokinetic profile of oral firocoxib in the koala (Phascolarctos cinereus)” (PLOS One, 2025).
In brackets after ≈: the same amount, converted by molar mass. Like-named read-outs stand apart in the source and are kept apart here.

How the values were obtained:
[1] = set-up: method as in ref [5] of S9 Table; conditions: Camels (5); IV 0.1 mg/kg; ref [5] of S9 Table; cited from earlier work
[2] = test system: COX-2; conditions: cited from earlier work
[3] = test system: ovariohysterectomised cats; set-up: method as in PMID 27515266; conditions: 3 mg/kg/day, cited from earlier work
[4] = cited from earlier work
[5] = Firocoxib binding to plasma proteins, ultrafiltration; format: in vitro ADME; conditions: pooled plasma, pH 7.4, firocoxib 500 ng/mL, corrected for non-specific binding, thawed frozen plasma, read-out: corrected percentage bound to plasma proteins (converted)
Protocol: The percentage of firocoxib bound to koala plasma proteins was determined using the ultrafiltration method using a modified protocol. As firocoxib plasma protein binding (PPB) has been reported in horses, archived horse plasma (obtained under The University of Sydney approved animal ethics protocol: 2015/736) was tested simultaneously alongside koala plasma to compare the percentage of firocoxib bound to equine plasma proteins. The total plasma protein concentration in the koala samples was determined using Vetscan® VS2 chemistry analyser (Comprehensive Diagnostic Profile), (Zoetis Australia Pty Ltd., Rhodes, NSW). Firocoxib dissolved in dimethyl sulfoxide (to reduce non-specific binding) at a concentration of 500 ng/mL, was added to 1 mL of thawed pooled blank koala or horse plasma, the pH was adjusted to 7.4, and then incubated in a water bath at 37 °C for 30 min. […] Both fractions were analysed by HPLC as described above. All samples were analysed as duplicates. The percentage of substrate binding to plasma proteins was calculated using the equation: […]
(§1) The same concentrations of firocoxib were added to phosphate buffered saline and underwent ultrafiltration to determine non-specific binding to the filtration membrane. Thereafter the corrected percentage of substrate binding to plasma proteins was calculated as: […]

[6] = Non-specific binding to the filtration membrane (phosphate buffered saline); format: in vitro ADME; conditions: at a concentration of 250 ng/mL
Protocol: as §1

[7] = test system: equine plasma proteins; set-up: method as in PMID 17472652; conditions: radiolabelled firocoxib; cited from earlier work
[8] = set-up: method as in ref [7] of S9 Table; conditions: Calves (10); PO 0.5 mg/kg; ref [7] of S9 Table; cited from earlier work
[9] = cited from earlier work; remark: listed apart in the source
[10] = test system: urate crystal-induced synovitis in dogs; set-up: method as in ref 38 = [38]; 38 Dauteloup C , Pichou C , Beugnet F . Assessment of the efficacy of firocoxib and robenacoxib in an induced synovitis model of acute arthritis in dogs . International Journal of Applied Research in; conditions: cited from earlier work
[11] = test system: osteoarthritis in horses; set-up: method as in PMID 36684818; conditions: cited from earlier work
[12] = Repeated oral dosing (5 mg/kg every 12 h, six doses) plasma trough concentrations in koalas; format: in vivo; conditions: koala (Phascolarctos cinereus)
Protocol: At least 2 months after the initial single oral dose administration study, firocoxib was administered twice daily at a dose of 5 mg/kg orally (as described in the single dose administration) for three consecutive days with the last dose administered 60 h after first administration, with a total of six doses administered. Blood (2 mL) was collected once daily into lithium heparin tubes at […] after first firocoxib dosage (prior to the morning dose). The cap, extension tube and catheter were flushed with saline before and after each collection. The first 0.5 mL of blood was discarded to avoid dilution of samples with saline.
With the repeated oral dosing, the accumulation factor equation [18] was used to ascertain if there was any firocoxib accumulation between trough concentrations at 48 h versus 72 h:
Accumulationfactor=(1−e^−nkT)/(1−e^−kT)
Where n = the number of doses k = ke = elimination constant
τ = number of hours between dosing

[13] = test system: koalas; assay: Clinical observations, haematology and biochemistry after repeat dosing; format: in vivo, koala (Phascolarctos cinereus); conditions: for Phos: reference interval 0.87-2.47
Protocol: Samples were centrifuged at 1500 x g for 10 minutes, within 1 h of collection; the plasma was immediately stored at –80 °C and protected from light until drug quantification. […] Clinical observations for the presence of adverse effects in the animals treated included measurement of vital signs, appetite, body weight, faecal consistency and overall behaviour and mobility.

[14] = Dogs (40), PO 5 mg/kg, ref [1] of S9 Table
[15] = female, in vivo, Plasma firocoxib concentration (trough)
[16] = male, in vivo, Plasma firocoxib concentration (trough)

- fraction unbound at 30 min, 500 ng/mL ([5]; horse plasma): 0.147
- fraction unbound at 30 min, 500 ng/mL ([5]; koala plasma): 0.153
- non-specific binding of firocoxib [6]: 4.06%
- concentration at 24 h ([12]; both sexes, plasma, arithmetic mean, six koalas, 24 h, 5 mg/kg oral every 12 h, read-out: Firocoxib plasma trough concentration): 54.7 ng/mL
- concentration at 48 h ([12]; both sexes, plasma, arithmetic mean, six koalas, 48 h, 5 mg/kg oral every 12 h, read-out: Firocoxib plasma trough concentration): 47.4 ng/mL
- concentration at 72 h ([12]; both sexes, plasma, arithmetic mean, six koalas, 72 h (12 h after the last dose), 5 mg/kg oral every 12 h, read-out: Firocoxib plasma trough concentration): 85.5 ng/mL
- concentration at 24 h ([12]; both sexes, plasma, harmonic mean, six koalas, 24 h, 5 mg/kg oral every 12 h, read-out: Firocoxib plasma trough concentration): 43.3 ng/mL
- concentration at 48 h ([12]; both sexes, plasma, harmonic mean, six koalas, 48 h, 5 mg/kg oral every 12 h, read-out: Firocoxib plasma trough concentration): 33.2 ng/mL
- concentration at 72 h ([12]; both sexes, plasma, harmonic mean, six koalas, 72 h (12 h after the last dose), 5 mg/kg oral every 12 h, read-out: Firocoxib plasma trough concentration): 68.8 ng/mL
- concentration at 24 h ([12]; both sexes, plasma, median, six koalas, 24 h, 5 mg/kg oral every 12 h, read-out: Firocoxib plasma trough concentration): 58.3 ng/mL
- concentration at 48 h ([12]; both sexes, plasma, median, six koalas, 48 h, 5 mg/kg oral every 12 h, read-out: Firocoxib plasma trough concentration): 52.9 ng/mL
- concentration at 72 h ([12]; both sexes, plasma, median, six koalas, 72 h (12 h after the last dose), 5 mg/kg oral every 12 h, read-out: Firocoxib plasma trough concentration): 82.1 ng/mL
- concentration at 24 h [12, 15]: 69.1 ng/mL
- concentration at 48 h [12, 15]: 36.8 ng/mL
- concentration at 72 h [12, 15]: 137 ng/mL
- concentration at 24 h ([12]; female, plasma, harmonic mean, females, 24 h, 5 mg/kg oral every 12 h, read-out: Firocoxib trough plasma concentration): 75.5 ng/mL
- concentration at 48 h ([12]; female, plasma, harmonic mean, females, 48 h, 5 mg/kg oral every 12 h, read-out: Firocoxib trough plasma concentration): 51.6 ng/mL
- concentration at 72 h ([12]; female, plasma, harmonic mean, females, 72 h, 5 mg/kg oral every 12 h, read-out: Firocoxib trough plasma concentration): 118 ng/mL
- concentration at 24 h ([12]; female, plasma, mean, females, 24 h, 5 mg/kg oral every 12 h, read-out: Firocoxib trough plasma concentration): 76.5 ng/mL
- concentration at 48 h ([12]; female, plasma, mean, females, 48 h, 5 mg/kg oral every 12 h, read-out: Firocoxib trough plasma concentration): 55.5 ng/mL
- concentration at 72 h ([12]; female, plasma, mean, females, 72 h, 5 mg/kg oral every 12 h, read-out: Firocoxib trough plasma concentration): 120 ng/mL
- concentration at 24 h ([12]; female, plasma, median (range), females, 24 h, 5 mg/kg oral every 12 h, read-out: Firocoxib trough plasma concentration): 71.3 ng/mL
- concentration at 48 h ([12]; female, plasma, median (range), females, 48 h, 5 mg/kg oral every 12 h, read-out: Firocoxib trough plasma concentration): 60.2 ng/mL
- concentration at 72 h ([12]; female, plasma, median (range), females, 72 h, 5 mg/kg oral every 12 h, read-out: Firocoxib trough plasma concentration): 120 ng/mL
- concentration at 24 h [12, 16]: 25.3 ng/mL
- concentration at 72 h [12, 16]: 61.8 ng/mL
- concentration at 24 h ([12]; male, plasma, arithmetic mean, males, 24 h, 5 mg/kg oral every 12 h, read-out: Firocoxib trough plasma concentration): 33 ng/mL
- concentration at 48 h ([12]; male, plasma, arithmetic mean, males, 48 h, 5 mg/kg oral every 12 h, read-out: Firocoxib trough plasma concentration): 39.2 ng/mL
- concentration at 72 h ([12]; male, plasma, arithmetic mean, males, 72 h, 5 mg/kg oral every 12 h, read-out: Firocoxib trough plasma concentration): 51.3 ng/mL
- concentration at 24 h ([12]; male, plasma, harmonic mean, males, 24 h, 5 mg/kg oral every 12 h, read-out: Firocoxib trough plasma concentration): 30.3 ng/mL
- concentration at 48 h ([12]; male, plasma, harmonic mean, males, 48 h, 5 mg/kg oral every 12 h, read-out: Firocoxib trough plasma concentration): 24.6 ng/mL
- concentration at 72 h ([12]; male, plasma, harmonic mean, males, 72 h, 5 mg/kg oral every 12 h, read-out: Firocoxib trough plasma concentration): 48.5 ng/mL
- concentration at 24 h ([12]; male, plasma, median (range), males, 24 h, 5 mg/kg oral every 12 h, read-out: Firocoxib trough plasma concentration): 26.1 ng/mL
- concentration at 48 h ([12]; male, plasma, median (range), males, 48 h, 5 mg/kg oral every 12 h, read-out: Firocoxib trough plasma concentration): 48.2 ng/mL
- concentration at 72 h ([12]; male, plasma, median (range), males, 72 h, 5 mg/kg oral every 12 h, read-out: Firocoxib trough plasma concentration): 56.2 ng/mL
- Phos ([13]; koala K2, 72 h, after repeated dosing 5 mg/kg every 12 h): 1.48 mmol/L
- Phos ([13]; koala K6, 72 h, after repeated dosing 5 mg/kg every 12 h): 1.37 mmol/L
- Na ([13]; koala K6, 72 h, after repeated dosing 5 mg/kg every 12 h, reference interval 132-143): 139 mmol/L
SMILES: CC1(C)OC(=O)C(OCC2CC2)=C1c1ccc(S(C)(=O)=O)cc1 [firocoxib]
- t1/2 [1]: 5.75 h
- IC80 (COX-2) ([2]; horse whole blood, in vitro): 0.067 µg/mL (≈ 0.199 µM)
- plasma concentration required to inhibit 80% of in vitro COX-2 reactions ([2]; horse, corrected from whole blood IC80): exceeding 103 ng/mL
- COX-1:COX-2 inhibition ratio ([2]; horses, whole blood): 643
- postoperative analgesia ([3]; 1 h prior to induction of anaesthesia and at 24 and 48 h post-surgery): some analgesia
- azotaemia ([3]; 72 h after surgery): two out of eight cats developed a reversible azotaemia
- t1/2 ([4]; Dogs (6), PO 5 mg/kg, ref [2] of S9 Table): 6.5 h
- Cmax [4, 14]: 520 ng/mL
- Tmax [4, 14]: 1.25 h
- t1/2 [4, 14]: 5.9 h
- Tmax ([4]; dogs): 1.25 h
- plasma elimination half-life (mean) ([4]; dogs): 5.90 h
- mean Cmax ([4]; dogs, oral 5 mg/kg): 520 ng/mL
- bound in horse plasma [7]: 97%
- Cmax [8]: 127.9 ng/mL
- t1/2 [8]: 18.8 h
- ionizability ([9]; at physiological pH): low ionizability
- -log10 dissociation constant (pka) [9]: 19.69
- solubility in dimethyl sulfoxide [9]: highly soluble
- solubility in water [9]: insoluble
- peak vertical force and weight-bearing capacity [10]: efficacy in improving the peak vertical force and weight-bearing capacity
- efficacy for controlling pain and inflammation associated with osteoarthritis [11]: good efficacy
- appetite, behaviour and mobility ([13]; in vivo): no change from normal appetite, behaviour and mobility
- body weight ([13]; in vivo): maintained stable body weight
